Laboratory results published in patent publication US4305852A, “Polypeptide compositions” (American Home Products Corporation, priority 1980, dated 1981).
Where a SMILES comes first, the peptide text is derived from it. Where no end group is shown, it is not given here. [ ]: non-standard residue; d: D form.

Tests used:
T lymphocytes = assay: T lymphocyte proliferation, 3H-thymidine incorporation; type: cell-based, male CBA/J or NZB mice; details: 48 h culture
Protocol: T lymphocytes are isolated from spleens of male CBA/J or NZB mice. Cell homogenates are prepared in Hank's balanced salt solution (HBSS). After removal of larger particles and repeated washing of the cells in HBSS they are suspended in minimum essential medium (MEM) and passed through a glass wool column to remove macrophages. The cells are then incubated on a nylon wool column at 37° C., 95% air, 5% CO2, for 45 minutes. The non-adherant T lymphocytes are then eluted from the column, counted, and adjusted to 20×10^6 cells/ml. 50 μl of cells are cultured (37° C., 95% air, 5% CO2) with compound, for 48 hours before the addition of 0.5 μCi. of 3H-thymidine for the last 16 hours of culture. The total volume of the culture system is 200 μl. The cells are then harvested on a multiple automatic sample harvester (Mash II), the glass fiber filter disks placed in 10 ml. of xylene base scintillation fluid, and counted for 1 minute in a liquid scintillation counter. Results are reported as CPM±SE.

murine prothymocytes = details: in vitro; cited from earlier work
[1] = test system: autologous rosette-forming cells; details: in vivo, athymic mice; cited from earlier work
cells of the B lineage = details: in vitro; cited from earlier work

| Compound | CPM ± SE (3H-thymidine incorporation) (T lymphocytes; 0.00075 μg/culture, second experiment (blank 19275 ± 1298)) | CPM ± SE (3H-thymidine incorporation) (T lymphocytes; 0.0015 μg/culture, first experiment (blank 9876 ± 951)) | CPM ± SE (3H-thymidine incorporation) (T lymphocytes; 0.0015 μg/culture, second experiment (blank 19275 ± 1298)) | CPM ± SE (3H-thymidine incorporation) (T lymphocytes; 0.006 μg/culture, first experiment (blank 9876 ± 951)) | CPM ± SE (3H-thymidine incorporation) (T lymphocytes; 0.006 μg/culture, second experiment (blank 19275 ± 1298)) | CPM ± SE (3H-thymidine incorporation) (T lymphocytes; 0.025 μg/culture, first experiment (blank 9876 ± 951)) | CPM ± SE (3H-thymidine incorporation) (T lymphocytes; 0.025 μg/culture, second experiment (blank 19275 ± 1298)) | CPM ± SE (3H-thymidine incorporation) (T lymphocytes; 0.1 μg/culture, first experiment (blank 9876 ± 951)) | differentiation of murine prothymocytes to thymocytes (murine prothymocytes) | numbers of autologous rosette-forming cells in spleens [1] | differentiative induction of cells of the B lineage (cells of the B lineage) |
| --- | --- | --- | --- | --- | --- | --- | --- | --- | --- | --- | --- |
| CC(=O)O.CC(=O)O.CC(=O)O.CC(C)[C@H](NC(=O)[C@H](CC(=O)O)NC(=O)[C@H](CCCCN)NC(=O)[C@@H](N)CCCNC(=N)N)C(=O)N[C@H](C)C(N)=O [Arg--Lys--Asp--Val--D--Ala--NH2, L-arginyl-L-lysyl-L-aspartyl-L-valyl-D-alaninamide triacetate] (H-RKDV[dA]-NH2) | 18983 ± 2651 CPM | 20305 ± 2347 CPM | 22966 CPM | 18640 ± 1830 CPM | 28559 ± 3663 CPM | 30181 ± 3895 CPM | 25515 ± 2486 CPM | 21887 ± 3143 CPM |  |  |  |
| RKDVY [arginyl-lysyl-aspartyl-valyl-tyrosine] |  |  |  |  |  |  |  |  | induced the differentiation of murine prothymocytes to thymocytes | reducing the high numbers of autologous rosette-forming cells | inhibited differentiative induction of cells of the B lineage |
